The values that follow come from PubChem BioAssay (NCI).

Values joined by “and” are separate entries in the source; they are usually repeats but may differ in a detail not shown here. Identical values can stand only once.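 Grown in 96-well plates, cells were treated for 48 hours with each compound at five concentrations. Insufficient inhibition: endpoint recorded as highest concentration tested. Here, GI50 denotes the concentration required for 50% inhibition of growth. TGI denotes the concentration required for complete inhibition of growth.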

Test systems include HCT-15 colon; IGROV1 ovarian; KM12 colon; LOX IMVI melanoma; MDA-MB-231 breast; MDA-MB-435; NCI-H226 lung; OVCAR-8 ovarian; SW-620 colon; UO-31 renal.
Holding throughout (assay): NCI anticancer screen, dose series, 48 h

Consider `O=C1/C(=C/c2ccccc2)CCC/C1=C\c1ccccc1`, for which the GI50 with HCT-15 colon is 5.91 µM and 6.43 µM; in the assay on IGROV1 ovarian it was 8.37 µM and 14.6 µM; in the assay on KM12 colon, 3.54 µM and 2.11 µM; with LOX IMVI melanoma, 3.83 µM and 1.52 µM; in the assay on MDA-MB-231 breast, 18.5 µM; in the assay on MDA-MB-435 it was 2.71 µM. The GI50 in the assay with NCI-H226 lung is 7.83 µM and 12.5 µM; in the assay on OVCAR-8 ovarian, 3.57 µM; in the assay on SW-620 colon, 6.37 µM and 3.19 µM; in the assay with UO-31 renal, 6.04 µM and 12.5 µM. In addition, the TGI with HCT-15 colon was 11.9 µM and 31.7 µM and 43.8 µM; in the assay on IGROV1 ovarian it was 14.1 µM and 29.4 µM and > 100 µM; in the assay with KM12 colon, 7.81 µM and 5.54 µM and 4.26 µM; in the assay on LOX IMVI melanoma, 8.65 µM and 5.92 µM and 3.64 µM; in the assay on MDA-MB-231 breast, 11.6 µM and 68.1 µM; with MDA-MB-435, 11 µM and 14.1 µM. In addition, the TGI with NCI-H226 lung is 13.8 µM and 35.1 µM and 33 µM; with OVCAR-8 ovarian, 13.6 µM and 28.1 µM and 25.4 µM; with SW-620 colon, 11.8 µM and 6.4 µM and 11.2 µM; with UO-31 renal, 11 µM and 32.3 µM and 28 µM.
Regarding `NCC1OC(OC2C(CO)OC(OC3C(O)C(N)CC(N)C3OC3OC(CO)C(O)C(O)C3N)C2O)C(N)C(O)C1O` (stereo not drawn), the GI50 in the assay on HCT-15 colon, in the assay with IGROV1 ovarian, with KM12 colon, with LOX IMVI melanoma, with MDA-MB-231 breast and in the assay with MDA-MB-435 was more than 50 µg/mL in each case. Moreover, the GI50 with NCI-H226 lung, with OVCAR-8 ovarian, with SW-620 colon and in the assay with UO-31 renal was more than 50 µg/mL each time. Besides, the TGI with HCT-15 colon, in the assay on IGROV1 ovarian, in the assay on KM12 colon, in the assay with LOX IMVI melanoma, in the assay with MDA-MB-231 breast and with MDA-MB-435 was more than 50 µg/mL in each case. The TGI with NCI-H226 lung, in the assay with OVCAR-8 ovarian, in the assay on SW-620 colon and with UO-31 renal was more than 50 µg/mL throughout.
As to `C=C1CCC2C3(C)COC(c4ccc(SC)cc4)OC3CCC2(C)C1C/C=C1/C(=O)OCC1O` (stereo not drawn), the GI50 with HCT-15 colon is 2.37 µM; in the assay with IGROV1 ovarian, 4.3 µM; in the assay with KM12 colon, 5.21 µM; in the assay with LOX IMVI melanoma, 1.44 µM; in the assay with MDA-MB-231 breast, 5.52 µM; with MDA-MB-435, 3.69 µM. For the same compound, the GI50 in the assay on NCI-H226 lung is 7.85 µM; in the assay on OVCAR-8 ovarian, 2.14 µM; in the assay on SW-620 colon, 1.93 µM; with UO-31 renal, 9.73 µM. The TGI in the assay on HCT-15 colon was found to be 7.96 µM; with IGROV1 ovarian it was 15.9 µM; in the assay with KM12 colon, 17.6 µM; with LOX IMVI melanoma, 3.01 µM; in the assay with MDA-MB-231 breast, 16.5 µM; in the assay with MDA-MB-435 it was 16.4 µM. Also, the TGI in the assay with NCI-H226 lung worked out at 25.7 µM; in the assay on OVCAR-8 ovarian, 6.56 µM; with SW-620 colon, 3.66 µM; in the assay with UO-31 renal, 21.9 µM.
Turning to `CC(=O)OC1CCC2(C)C(=CCC3C2CCC2(C)C(C(C)C(=O)O)CCC32)C1` (stereo not drawn), the TGI in the assay with HCT-15 colon, in the assay on IGROV1 ovarian, with KM12 colon, in the assay on LOX IMVI melanoma, in the assay with MDA-MB-231 breast and with MDA-MB-435 was more than 100 µM throughout. For the same compound, the TGI in the assay on NCI-H226 lung, in the assay with OVCAR-8 ovarian, in the assay with SW-620 colon and in the assay with UO-31 renal was more than 100 µM in each case.
Consider `CCC1CC(=O)N(SCC(N)C(=O)O)C1=O` (stereo not drawn), for which the TGI with HCT-15 colon, in the assay with IGROV1 ovarian, in the assay on KM12 colon, with LOX IMVI melanoma, with MDA-MB-231 breast and in the assay on MDA-MB-435 was more than 100 µM in each case. For the same compound, the TGI in the assay on NCI-H226 lung, in the assay on OVCAR-8 ovarian, in the assay on SW-620 colon and in the assay with UO-31 renal was more than 100 µM each time.
As to `COc1ccc(/C=C\c2cc(OC)c(OC)c(OC)c2)cc1OC(=O)c1cccc(Cn2cc(CCOC(=O)c3cccc(Cn4nnc5c4C(=O)c4ccccc4C5=O)c3)nn2)c1`, the GI50 in the assay with HCT-15 colon is less than 0.01 µM; with IGROV1 ovarian, 0.0252 µM; with KM12 colon it was less than 0.0133 µM; with LOX IMVI melanoma, 0.0149 µM; in the assay with MDA-MB-231 breast it was less than 0.01 µM; with MDA-MB-435, less than 0.01 µM. The GI50 is 0.15 µM in the assay with NCI-H226 lung, less than 0.01 µM in the assay on OVCAR-8 ovarian, less than 0.01 µM in the assay on SW-620 colon and 0.16 µM in the assay with UO-31 renal. In addition, the TGI was more than 100 µM in the assay with HCT-15 colon; 26.4 µM with IGROV1 ovarian; more than 77.6 µM with KM12 colon; more than 100 µM in the assay with LOX IMVI melanoma; 16.3 µM in the assay on MDA-MB-231 breast; more than 37.1 µM with NCI-H226 lung. Besides, the TGI was more than 44.8 µM with OVCAR-8 ovarian, more than 100 µM in the assay on SW-620 colon and 79.5 µM in the assay with UO-31 renal.
`O=C(c1cccs1)c1c(C(F)(F)F)n([O-])c2ccc(F)cc2[n+]1=O`: the GI50 with HCT-15 colon was 0.435 µM; with IGROV1 ovarian, 0.279 µM; in the assay on KM12 colon it was 0.163 µM; with LOX IMVI melanoma, 0.971 µM; with MDA-MB-231 breast it was 1.5 µM; in the assay on MDA-MB-435, 1.31 µM. Also, the GI50 in the assay on NCI-H226 lung is 1.76 µM; with OVCAR-8 ovarian, 0.528 µM; with SW-620 colon, 0.523 µM; with UO-31 renal, 1.3 µM. Besides, the TGI with HCT-15 colon is 1.64 µM; with IGROV1 ovarian, 1.49 µM; with KM12 colon, 0.35 µM; with LOX IMVI melanoma, 2.67 µM; in the assay with MDA-MB-231 breast, 3.1 µM; in the assay on MDA-MB-435 it was 2.87 µM. The TGI with NCI-H226 lung amounted to 3.39 µM; with OVCAR-8 ovarian, 1.34 µM; in the assay with SW-620 colon, 2.32 µM; in the assay with UO-31 renal, 2.58 µM.
As for `O=c1[nH]c(SCc2c(Cl)c(Cl)c(Cl)c(Cl)c2Cl)nc(=S)[nH]1`, the TGI in the assay with HCT-15 colon, in the assay on IGROV1 ovarian, with KM12 colon, in the assay with LOX IMVI melanoma, with MDA-MB-231 breast and in the assay on MDA-MB-435 was more than 100 µM throughout. Also, the TGI was more than 100 µM with NCI-H226 lung, more than 100 µM in the assay on OVCAR-8 ovarian, more than 100 µM in the assay on SW-620 colon and more than 58.9 µM in the assay on UO-31 renal.
For `COc1cc2c3c(n(C)c(=O)c2cc1OC)-c1cc2c(cc1/C3=C\CCCBr)OCO2`, the GI50 in the assay with HCT-15 colon was 34.8 µM; in the assay on IGROV1 ovarian it was 28.5 µM; in the assay on KM12 colon, more than 100 µM; with LOX IMVI melanoma it was 42 µM; with MDA-MB-231 breast, 9.16 µM; in the assay on MDA-MB-435, more than 100 µM. In addition, the GI50 was 77.5 µM with NCI-H226 lung, more than 100 µM with SW-620 colon and more than 49.7 µM with UO-31 renal. Besides, the TGI was more than 86.8 µM with HCT-15 colon; more than 100 µM in the assay with IGROV1 ovarian; more than 100 µM in the assay with KM12 colon; more than 100 µM in the assay with LOX IMVI melanoma; more than 45.3 µM in the assay on MDA-MB-231 breast; more than 100 µM in the assay with MDA-MB-435. Also, the TGI in the assay with NCI-H226 lung is more than 100 µM; in the assay with OVCAR-8 ovarian it was more than 48.7 µM; with SW-620 colon it was more than 100 µM; with UO-31 renal, more than 100 µM.
`COc1cc(C2CC(c3cc(C)ccc3C)=NN2c2ccc(S(=O)(=O)NC(=O)NCc3ccccc3)cc2)cc(OC)c1OC` (stereo not drawn): the GI50 with HCT-15 colon is 3.18 µM; in the assay on IGROV1 ovarian it was 3.95 µM; with KM12 colon it was 3.44 µM; with LOX IMVI melanoma it was 3.79 µM; in the assay on MDA-MB-231 breast, 2.96 µM; in the assay on MDA-MB-435, 2.27 µM. Moreover, the GI50 with NCI-H226 lung was 3.63 µM; in the assay on OVCAR-8 ovarian it was 3.77 µM; with SW-620 colon it was 3.62 µM; in the assay on UO-31 renal it was 3.56 µM. For the same compound, the TGI was more than 100 µM in the assay on HCT-15 colon; 19.8 µM in the assay with IGROV1 ovarian; 17.6 µM in the assay with KM12 colon; more than 100 µM in the assay with LOX IMVI melanoma; 13.3 µM in the assay with MDA-MB-231 breast; 5.25 µM in the assay with MDA-MB-435. The TGI in the assay on NCI-H226 lung was 15.6 µM; with OVCAR-8 ovarian, 32.4 µM; in the assay on SW-620 colon it was more than 100 µM; with UO-31 renal, 15.6 µM.
